Source: US20240398737A1, “FUNCTIONALIZED LONG-CHAIN HYDROCARBON MONO- AND DI-CARBOXYLIC ACIDS AND DERIVATIVES THEREOF, AND THEIR USE FOR THE PREVENTION OR TREATMENT OF DISEASE” (Espervita Therapeutics, Inc., priority 2021, published 2024)

Key:
[1] = target: PIM3 (Homo sapiens (Human), UniProt Q86V86); assay: Wild type kinase screen: PIM3; assay type: biochemical; conditions: compound at 10 μM, 10 μM ATP, Data 1 and Data 2 duplicates
[2] = Single and repeat dose plasma and tissue pharmacokinetics in male C57BL/6 mice; assay type: in vivo, mouse; conditions: for Bioavailability in brain compared to liver (fold lower): 20 mg/kg PO, male C57BL/6 mice; for Cmax / Tmax / AUC(0-t): male, C57BL/6, mouse, po
From the text: Materials and methods. The study involved two arms: a single dose pharmacokinetic study and a 4-day repeated-dose pharmacokinetic study. For each arm, 56 inbred male C57BL/6 mice, aged at 6-7 week, were included. All animals were purchased from Charles River Lab (CRL, MA). Upon their arrival, they were kept in special-pathogen-free environment all the time. Briefly, they were housed in group on corncob bedding (ScottPharma, MA) in Innovive® caging system (Innovive, CA) on a 12-hour light-dark cycle (0700-1900) at 68-74° F. and 30-70% humidity. They were allowed continually to access water and regular rodent Purina 5001 diet (ScottPharma, MA) ad libitum and to acclimate in the facility for 5 days. Animal handling and procedures were conducted under the protocols and/or guidelines approved by the Institutional Animal Care and Use Committee (IACUC) of […] Biosciences, Inc. […] Also, 2× drug vehicle (3% CMC+0.4% Tween-20) was prepared and stored at 4° C. for a week. On the day of injection, 1 ml frozen 2× aqueous stock solution (20 mg/ml drug solution) aliquot is thawed and mix with another 1 ml 2× drug vehicle (3% Carboxymethyl cellulose+0.4% Tween 20) to prepare 10 mg/ml drug solution. A 25 g mouse would receive 250 μl of 10 mg/ml solution for a dose of 100 mg/kg. Lower concentrations can be achieved by further diluting the 10 mg/ml in 1× vehicle solution with 1× vehicle prepared with milliQ water. On each dosing day, both compound stocks and 2× vehicle were warmed to room temperature and was mixed at 1:1 ratio, given to a concentration of 10 mg/mL. Then 1:5-fold dilutions were obtained with 1× vehicle to 2 mg/mL. Dosing volume at 10 mL/kg (final dosage: 20 mg/kg) in the morning. Route of administration is oral gavage (volume of 10 ml/kg body weight). Study Design. In each group 4 male 6-7-week-old C57BL/6 mice were used. Doses were administered once daily via oral gavage for either a day (single dose arm, QDx1) or 4 consecutive days (repeated dose arm, QDx4) (FIG. 24). Blood, half of brain hemisphere, and one lobe of liver samples were collected from all animals of Day 1 (QDx1 arm) at pre-dose and 0.25, 2, 4, 8, 24 and 36 hours post dose, or Day 4 (QDx4 arm) at pre-dose and 0.25, 2, 4, 8, 24 and 48 hours post dose. Blood samples were collected by cardiac puncture. The blood samples were maintained in wet ice first and centrifuged to obtain plasma (2000×g, 4° C., 5 min). All three samples from each mouse were analyzed for either Compound I-1 or Compound I-32 contents by Integrated Analytical Solutions (Berkeley, CA) and the results were used for the generation of the pharmacokinetic graphs. Sample collection, storage, bioanalysis and statistical analysis. All plasma and tissue samples were analyzed by discovery grade bioanalytical method developed for estimation of each test compound in plasma and tissue samples using LC-MS/MS systems. Plasma samples were prepared as follows. Three volumes of acetonitrile containing internal standard was added to one volume of plasma to precipitate proteins. Samples were centrifuged (3000×g for 10 min) and supernatant removed for analysis by LC-MS/MS. Calibration standards and quality controls were made by preparation of a 1 mg/mL stock solution in MeOH and subsequently a series of working solutions in MeOH:water (1:1, v/v) which were spiked into blank plasma to yield a series of calibration standard samples in the range of 1.0 ng/mL to 10 μg/mL. All incurred PK/PD plasma samples were treated identically to the calibration standards and quality control samples. LC-MS/MS analysis was performed utilizing multiple reaction monitoring for detection of characteristic ions for each drug candidate, additional related analytes and internal standard. Tissue samples were prepared as follows. Three volumes of PBS buffer (pH 7.4) were added to one volume of each tissue sample which was then homogenized to obtain each tissue homogenate sample. […]

[3] = brain, 20 mg/kg, mouse brain, QD × 1, value in parentheses marked * (reanalysis per footnote of Tables 8-9)
[4] = brain, 20 mg/kg, mouse brain, QD × 4, value in parentheses marked * (reanalysis per footnote of Tables 8-9)
[5] = brain, 20 mg/kg/day, mouse brain, 20 mg/kg/day PO, 4 consecutive days (QD × 4)
[6] = brain, 20 mg/kg/day, mouse brain, 20 mg/kg/day PO, single dose (QD × 1)
[7] = liver, 20 mg/kg, mouse liver, QD × 1, value in parentheses: timepoint 0.25 h samples after reanalysis
[8] = liver, 20 mg/kg, mouse liver, QD × 4, value in parentheses: timepoint 0.25 h samples after reanalysis
[9] = liver, 20 mg/kg/day, mouse liver, 20 mg/kg/day PO, 4 consecutive days (QD × 4)
[10] = liver, 20 mg/kg/day, mouse liver, 20 mg/kg/day PO, single dose (QD × 1)
[11] = plasma, 20 mg/kg, mouse plasma, QD × 1, value in parentheses: timepoint 0.25 h samples after reanalysis
[12] = plasma, 20 mg/kg, mouse plasma, QD × 4, value in parentheses: timepoint 0.25 h samples after reanalysis
[13] = plasma, 20 mg/kg/day, mouse plasma, 20 mg/kg/day PO, 4 consecutive days (QD × 4)
[14] = plasma, 20 mg/kg/day, mouse plasma, 20 mg/kg/day PO, single dose (QD × 1)
[15] = mouse brain, 20 mg/kg/day PO, 4 consecutive days (QD × 4)
[16] = mouse brain, 20 mg/kg/day PO, single dose (QD × 1)
[17] = mouse liver, 20 mg/kg/day PO, 4 consecutive days (QD × 4)
[18] = mouse liver, 20 mg/kg/day PO, single dose (QD × 1)

Row | Compound | % Enzyme Activity (relative to DMSO controls) [1] | Bioavailability in brain compared to liver (fold lower) [2] | Cmax [2, 5] | Tmax [2, 5] | Cmax [2, 6] | Tmax [2, 6] | Cmax [2, 9] | Tmax [2, 9] | Cmax [2, 10] | Tmax [2, 10] | AUC(0-t) [2, 13] | Cmax [2, 13] | Tmax [2, 13] | AUC(0-t) [2, 14] | Cmax [2, 14] | Tmax [2, 14] | AUC0-t (h*ng/g) [2, 15] | AUC0-t (h*ng/g) [2, 16] | AUC0-t (h*ng/g) [2, 17] | AUC0-t (h*ng/g) [2, 18] | also measured
1 | CC(C)(CCCCc1ccc(CCCCC(C)(C)C(=O)O)cc1)C(=O)O [Compound I-1, 6-[4-(5-carboxy-5-methylhexyl)-phenyl]-2,2-dimethylhexanoic acid] | 83% | 300-400 fold | 168 ng/g | 240 min | 492 ng/g | 120 min | 30900 ng/g | 15 min | 27000 ng/g | 15 min | 1170 µg·h/mL | 102 µg/mL | 15 min | 1380 µg·h/mL | 102 µg/mL | 15 min | 1,220 h*ng/g | 1,183 h*ng/g | 687,414 h*ng/g | 425,184 h*ng/g | Cmax [2, 3]: 1020 ng/g; Tmax [2, 3]: 15 min; Cmax [2, 4]: 1390 ng/g; Tmax [2, 4]: 15 min; Cmax [2, 7]: 21500 ng/g; Tmax [2, 7]: 15 min; Cmax [2, 8]: 46600 ng/g; Tmax [2, 8]: 15 min; AUC(0-t) [2, 11]: 1670 µg·h/mL; Cmax [2, 11]: 90 µg/mL; Tmax [2, 11]: 15 min; AUC(0-t) [2, 12]: 1090 µg·h/mL; Cmax [2, 12]: 76.1 µg/mL; Tmax [2, 12]: 15 min; AUC0-t (h*ng/g) ([2]; mouse brain, QD × 1, value in parentheses marked * (reanalysis per footnote of Tables 8-9)): (2,091)* h*ng/g; AUC0-t (h*ng/g) ([2]; mouse brain, QD × 4, value in parentheses marked * (reanalysis per footnote of Tables 8-9)): (3,995)* h*ng/g; AUC0-t (h*ng/g) ([2]; mouse liver, QD × 1, value in parentheses: timepoint 0.25 h samples after reanalysis): (469,726)* h*ng/g; AUC0-t (h*ng/g) ([2]; mouse liver, QD × 4, value in parentheses: timepoint 0.25 h samples after reanalysis): (718,455)* h*ng/g
2 | CC(C)(CCCCc1cccc(CCCCC(C)(C)C(=O)O)c1)C(=O)O [Compound I-32, 6-[3-(5-carboxy-5-methylhexyl)-phenyl]-2,2-dimethylhexanoic acid] | 86.73% | 300-400 fold | 604 ng/g | 240 min | 362 ng/g | 120 min | 43000 ng/g | 240 min | 25100 ng/g | 120 min | 758 µg·h/mL | 76.5 µg/mL | 240 min | 240 µg·h/mL | 50.2 µg/mL | 120 min | 6,304 h*ng/g | 1,527 h*ng/g | 100,6991 h*ng/g | 405,934 h*ng/g | –
